Broadly, the IC50 is the concentration that gives 50% inhibition. One may read the viability, T/C as the ratio of treated to control.

For this assay, the system named is 786-0 complex spheroid viability. Nature of the assay: Anticancer human tumor 786-0 cell line growth inhibition.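 As to all read-outs here: spheroids exposed to agents for seven days before readout.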 To be noted: for viability, T/C: stronger effect = lower value. The gist of the method: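 Drug combinations with the LSD1 inhibitor iadademstat tested on tumor cells co-cultured as spheroids with endothelial cells and mesenchymal stem cells. Concentrations descended in half-log increments from clinical Cmax or 10 microM.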

Setting [1] is: curve of first compound, second compound 0.1 µM.
The mark [2] stands for this setting: curve of first compound, second compound 0.316 µM.
Setting [3] is: curve of first compound, second compound 1 µM.
[4] abbreviates: curve of first compound, second compound 3.16 µM.
Setting [5] is: curve of first compound, second compound 10 µM.
The mark [6] stands for this setting: second compound 0.1 µM, first compound 0.0316 µM.
Where [7] appears, read: second compound 0.1 µM, first compound 0.1 µM.
The mark [8] stands for this setting: second compound 0.316 µM, first compound 0.0316 µM.
[9] abbreviates: second compound 0.316 µM, first compound 0.1 µM.
Setting [10] is: second compound 1 µM, first compound 0.0316 µM.
Setting [11] is: second compound 1 µM, first compound 0.1 µM.
Where [12] appears, read: second compound 3.16 µM, first compound 0.0316 µM.
[13] abbreviates: second compound 3.16 µM, first compound 0.1 µM.
[14] abbreviates: second compound 10 µM, first compound 0.0316 µM.
Setting [15] is: second compound 10 µM, first compound 0.1 µM.

Molecules are shown by their SMILES. “And” between values parts separate entries of the source, which are not always exact repeats. Identical values can stand only once.

`CC[C@@]1(O)C(=O)OCc2c1cc1n(c2=O)Cc2cc3c(CN(C)C)c(O)ccc3nc2-1` + NC1CCC(NC2CC2c2ccccc2)CC1: the IC50 is, setting by setting: under setting [1], 5.11 nM; under setting [2], 5.13 nM; under setting [3], 5.2 nM; under setting [4], 4.39 nM; under setting [5], 3.01 nM. Besides, the viability, T/C is 114% (second compound 0.1 µM, first compound 0.000316 µM); 113% (second compound 0.1 µM, first compound 0.001 µM); 77.3% (second compound 0.1 µM, first compound 0.00316 µM); 11.8% (second compound 0.1 µM, first compound 0.01 µM); 5.31% under setting [6]; 3.53% under setting [7]. Moreover, the viability, T/C (second compound 0.316 µM, first compound 0.000316 µM) is 111%; the viability, T/C (second compound 0.316 µM, first compound 0.001 µM) was 105%; the viability, T/C (second compound 0.316 µM, first compound 0.00316 µM) is 78.3%; the viability, T/C (second compound 0.316 µM, first compound 0.01 µM) is 10.8%; the viability, T/C under setting [8] is 5.38%; the viability, T/C under setting [9] is 3.62%. The viability, T/C is, setting by setting: (second compound 1 µM, first compound 0.000316 µM) 115%; (second compound 1 µM, first compound 0.001 µM) 105%; (second compound 1 µM, first compound 0.00316 µM) 80%; (second compound 1 µM, first compound 0.01 µM) 10.3%; under setting [10], 5.66%; under setting [11], 3.63%. The viability, T/C was 101% (second compound 3.16 µM, first compound 0.000316 µM); 95.2% (second compound 3.16 µM, first compound 0.001 µM); 65.2% (second compound 3.16 µM, first compound 0.00316 µM); 12.4% (second compound 3.16 µM, first compound 0.01 µM); 6.41% under setting [12]; 2.85% under setting [13]. Further, the viability, T/C (second compound 10 µM, first compound 0.000316 µM) was 84%; the viability, T/C (second compound 10 µM, first compound 0.001 µM) was 71.7%; the viability, T/C (second compound 10 µM, first compound 0.00316 µM) was 50.3%; the viability, T/C (second compound 10 µM, first compound 0.01 µM) is 6.62%; the viability, T/C under setting [14] was 5.01%; the viability, T/C under setting [15] is 3.36%.

With `CC(C)c1c(-c2ccccc2)nc2c(C#N)c[nH]n2c1=O`, the viability, T/C is 105% and 103% (compound 0.0316 µM); 108% and 101% (compound 0.1 µM); 99% and 105% (compound 0.316 µM); 102% and 105% (compound 1 µM); 104% and 110% (compound 3.16 µM); 102% and 103% (compound 10 µM). Besides, the IC50 (curve of compound) was over 10000 nM.

`CCc1c2c(nc3ccc(O)cc13)-c1cc3c(c(=O)n1C2)COC(=O)[C@]3(O)CC` + NC1CC1c1ccc(-c2cccc(O)c2)cc1: the half-maximal inhibitory concentration (IC50) under setting [1] was under 0.949 nM; the IC50 under setting [2] was under 0.949 nM; the IC50 under setting [3] is under 0.949 nM; the IC50 under setting [4] is under 0.949 nM; the IC50 under setting [5] is under 0.949 nM. For the same compound, the viability, T/C by setting is: (second compound 0.1 µM, first compound 0.000949 µM) 4.23%; (second compound 0.1 µM, first compound 0.003 µM) 4.35%; (second compound 0.1 µM, first compound 0.00949 µM) 4.15%; (second compound 0.1 µM, first compound 0.03 µM) 6.01%; (second compound 0.1 µM, first compound 0.0949 µM) 8.35%; (second compound 0.1 µM, first compound 0.3 µM) 9.73%. For the same compound, the viability, T/C reads like this: (second compound 0.316 µM, first compound 0.000949 µM) 4.4%; (second compound 0.316 µM, first compound 0.003 µM) 3.22%; (second compound 0.316 µM, first compound 0.00949 µM) 4.02%; (second compound 0.316 µM, first compound 0.03 µM) 6.1%; (second compound 0.316 µM, first compound 0.0949 µM) 8.62%; (second compound 0.316 µM, first compound 0.3 µM) 9.44%. For the same compound, the viability, T/C by setting is: (second compound 1 µM, first compound 0.000949 µM) 3.72%; (second compound 1 µM, first compound 0.003 µM) 3.14%; (second compound 1 µM, first compound 0.00949 µM) 4.57%; (second compound 1 µM, first compound 0.03 µM) 6.53%; (second compound 1 µM, first compound 0.0949 µM) 7.76%; (second compound 1 µM, first compound 0.3 µM) 8.97%. Also, the viability, T/C is 4.08% (second compound 3.16 µM, first compound 0.000949 µM); 3.82% (second compound 3.16 µM, first compound 0.003 µM); 4.22% (second compound 3.16 µM, first compound 0.00949 µM); 6.42% (second compound 3.16 µM, first compound 0.03 µM); 7.92% (second compound 3.16 µM, first compound 0.0949 µM); 7.63% (second compound 3.16 µM, first compound 0.3 µM). Further, the viability, T/C is, setting by setting: (second compound 10 µM, first compound 0.000949 µM) 3.29%; (second compound 10 µM, first compound 0.003 µM) 4.49%; (second compound 10 µM, first compound 0.00949 µM) 5.68%; (second compound 10 µM, first compound 0.03 µM) 8.54%; (second compound 10 µM, first compound 0.0949 µM) 9.57%; (second compound 10 µM, first compound 0.3 µM) 9.08%.

In the case of `CC[C@@]1(O)C(=O)OCc2c1cc1n(c2=O)Cc2cc3c(CN(C)C)c(O)ccc3nc2-1`, the viability, T/C is 103% and 99.7% (compound 0.000316 µM); 96.7% and 96.5% (compound 0.001 µM); 65.8% and 70.9% (compound 0.00316 µM); 15.6% and 24.7% (compound 0.01 µM); 9.17% and 10.9% (compound 0.0316 µM); 4.15% and 4.08% (compound 0.1 µM). Moreover, the IC50 (curve of compound) was 4.54 nM and 5.35 nM.

`CC(C)c1c(-c2ccccc2)nc2c(C#N)c[nH]n2c1=O` + NC1CC1c1ccc(-c2cccc(O)c2)cc1: the IC50 is, setting by setting: under setting [1], over 10000 nM; under setting [2], over 10000 nM; under setting [3], over 10000 nM; under setting [4], over 10000 nM; under setting [5], over 10000 nM. The viability, T/C by setting is: under setting [6], 114%; under setting [7], 120%; (second compound 0.1 µM, first compound 0.316 µM) 124%; (second compound 0.1 µM, first compound 1 µM) 121%; (second compound 0.1 µM, first compound 3.16 µM) 116%; (second compound 0.1 µM, first compound 10 µM) 119%. For the same compound, the viability, T/C under setting [8] was 118%; the viability, T/C under setting [9] was 117%; the viability, T/C (second compound 0.316 µM, first compound 0.316 µM) is 115%; the viability, T/C (second compound 0.316 µM, first compound 1 µM) was 121%; the viability, T/C (second compound 0.316 µM, first compound 3.16 µM) is 119%; the viability, T/C (second compound 0.316 µM, first compound 10 µM) is 115%. Besides, the viability, T/C is, setting by setting: under setting [10], 117%; under setting [11], 121%; (second compound 1 µM, first compound 0.316 µM) 123%; (second compound 1 µM, first compound 1 µM) 118%; (second compound 1 µM, first compound 3.16 µM) 116%; (second compound 1 µM, first compound 10 µM) 113%. For the same compound, the viability, T/C was 113% under setting [12]; 113% under setting [13]; 121% (second compound 3.16 µM, first compound 0.316 µM); 121% (second compound 3.16 µM, first compound 1 µM); 117% (second compound 3.16 µM, first compound 3.16 µM); 116% (second compound 3.16 µM, first compound 10 µM). Besides, the viability, T/C under setting [14] was 103%; the viability, T/C under setting [15] was 106%; the viability, T/C (second compound 10 µM, first compound 0.316 µM) is 110%; the viability, T/C (second compound 10 µM, first compound 1 µM) was 107%; the viability, T/C (second compound 10 µM, first compound 3.16 µM) was 107%; the viability, T/C (second compound 10 µM, first compound 10 µM) was 113%.

Consider `COc1cc(Nc2ncc3c(n2)-c2ccc(Cl)cc2C(c2c(F)cccc2OC)=NC3)ccc1C(=O)O`, for which the viability, T/C was 109% and 97.4% (compound 0.00316 µM); 90.9% and 98.9% (compound 0.01 µM); 67.5% and 84.2% (compound 0.0316 µM); 66.5% and 68.7% (compound 0.1 µM); 54.4% and 56% (compound 0.316 µM); 37.1% and 44.9% (compound 1 µM). For the same compound, under “curve of compound”, the IC50 was 329 nM and 565 nM.
